The source of these data is patent EP1900377A1, “Inhibitors of GPR87 for cancer therapy” (Boehringer Ingelheim International GmbH, priority 2006, dated 2008).

The assay relates to HN5 cells. The assay is described as follows: Rescue experiment: antibody pre-incubated with GPR87 N-terminal peptide. The assay is classed as cell-based, human. As to conditions: 50 ug/ml antibody, increasing amounts of peptide, Fig. 7B. On the procedure: Antibody targeting of hGPR87 on living cells is performed as follows: For antibody applications on living HN5 cells, a rabbit anti-hGPR87, directed against the N-terminus of hGPR87 (Novus Biologicals) is used (in Fig. 7A: N-term). HN5 cells are seeded (75000/6-well and 3000/96-well) the day prior to the antibody treatment. The antibody is used at a concentration of 50 ug/ml in medium without serum. 48 h after antibody addition the cells are either lysed for western blot analysis or analysed by AlamarBlue staining. Briefly, 10 ul of AlamarBlue reagent (Biosource, Camarillo USA/CA) are added to 100 ul medium and incubated until a change in color can be recognized (~6 hours). As a control, 50ug/ml antibody targeting C-terminal domain of human GPR87 is used (in Fig. 7A: C-term). Since antibodies are dissolved in PBS containing 0.01 %sodium azide, 0.01% sodium azide in PBS is added to the cells as a control to exclude toxic side effects (SA ctrl in Fig. 7A).
To determine the specificity of the anti-GPR87 antibody recognizing the N-terminus, in a so-called "rescue experiment", a peptide covering the first 46 amino acids of SEQ ID NO:2, is added. (The amounts used are 50 ug/ml of antibody and increasing amounts of GPR87 N-terminal peptide). […] The reversibility of the effects (proliferation and viability) correlates with the concentration of the blocking peptide (Fig. 7B).

For “GPR87 N-terminal peptide: a peptide covering the first 46 amino acids of SEQ ID NO:2 (MGFNLTLAKLPNNELHGQESHNSGNRSDGPGKNTTLHNEFDTIVLP)”, the “reversal of the pro-apoptotic, anti-proliferative effect of the antibody” value was “can be reversed”.
